Patent US3954227A, “Pharmaceutical compositions containing 1-(2',3'-dimethylphenoxy)-3-tert. butylamino-2-propanol or pharmaceutically acceptable salt thereof for treating or preventing coronary disorders” (Teikoku Hormone Mfg. Co., Ltd., priority 1969, dated 1976)
Entries after “also recorded” stand apart in the source; their conditions may differ. Like-named read-outs stand apart in the source and are kept apart here.

Experiments:
angina pectoris patients = test: Clinical test: bicycle ergometer exercise test in angina pectoris patients, double blind cross over; assay type: in vivo, human; design: Change in heart rate b)-a): unit not given here; conditions: for Change in heart rate b)-a) / Exercise time / a) Heart rate before exercise / b) Heart rate after exercise: compound A 5 mg twice daily, PROPRANOLOL 40 mg × 2, third day; for b) Heart rate after exercise: in beats/min (unit assumed)
Method: A test was then conducted on the third day 3 hours after the first administration. […] The test was carried out by the double blind method with a cross over test having a rest period of 10 days. The test method consisted of an exercise test utilizing a bicycle ergometer. After measuring the heart rates of the patients before starting the test, the patients were made to pedal the bicycle ergometer until they were seized with an attack of anginal pain, the effectiveness of the chemicals being judged by the time up to the attack and the heart rate at that time.

[1] = oral; cited from earlier work
rat [2] = test: Behavior analysis, rat; conditions: 4 hours observation
Method: (§1) The chemical to be tested was administered orally, and observations of the behaviors of the rats were carried out for 4 hours after administration of the chemical.
One group consisted of three rats.

mouse [3] = test: Behavior analysis, mouse (simplified Irwin's multidimensional method); conditions: 4 hours observation
From the text: (§2) The effects of chemicals on the behavior of mouse was examined by a simplified method of Irwin's multidimensional behavior analysis method.

[4] = system: beta-adrenergic (heart rate increase due to ISOPROTERENOL); test: Beta-adrenergic blocking activity in the case of intravenous injection, rat (antagonism to heart rate increase due to ISOPROTERENOL); assay type: in vivo, rat (Wistar)
Method: 1. Beta-adrenergic blocking activity in the case of intravenous injection (Antagonism to heart rate increase due to ISOPROTERENOL)
a. Male rats of Wistar strain weighing ca. 300 grams were anesthetized with PENTOBARBITAL-Na (60 mg/kg i.p.), after which they are secured in a supine position. The electrocardiogram was registered in the second lead, on a polygraph. ISOPROTERENOL (0.1 μg/kg) was administered through the left femoral vein at 7-minute intervals.
The heart rate increase for the first two times was averaged and used as control.
The antagonistic chemical was intravenously injected from the third time the ISOPROTERENOL was administered, the administration being performed cumulatively and sequentially in the amounts of respectively 6.25, 25, 100 . . . μg/kg invariably at a point 2 minutes before each administration of ISOPROTERENOL until the effects thereof practically disappeared.

heart rate [5] = test: Heart rate drop at the dosage required for manifestation of beta-adrenergic blocking activity, rat; assay type: in vivo
heart rate [6] = test: Heart rate drop at the dosage required for manifestation of beta-adrenergic blocking activity, dog; assay type: in vivo
heart rate [7] = test: Effect on heart rate (general statements); assay type: in vivo
mouse [8] = conditions: in vivo, 240 min
From the text: as §2

rat [9] = conditions: in vivo, 240 min
Method: as §1
One group consisted of three rats.

rat [10] = conditions: orally
dog [11] = conditions: orally
[12] = in vivo
rat [13] = test: Degree of safety (ratio of side reaction or lethal dosage to effective dosage), rat; conditions: in vivo, po
dog [14] = test: Degree of safety (ratio of side reaction or lethal dosage to effective dosage), dog; conditions: in vivo, po
beta-adrenergic = test: Beta-adrenergic blocking activity of metabolites (Table 2); assay type: in vivo; conditions: for Beta-adrenergic blocking activity compared with PROPRANOLOL, in words: in vivo
heart rate [15] = test: Change in heart rate at the dosage required for manifestation of the beta-adrenergic blocking activity (Table 2); assay type: in vivo

For `CC(C)NCC(O)COc1cccc2ccccc12` (stereo not shown) [PROPRANOLOL, 1-naphthoxy-3-isopropylamino-2-propanol, reference compound], the “Change in heart rate b)-a)” value (angina pectoris patients; Case No. 1) was 35, the Exercise time (angina pectoris patients; Case No. 1) was 134 s and the a) Heart rate before exercise (angina pectoris patients; Case No. 1) was 74 beats/min. The “b) Heart rate after exercise” value (angina pectoris patients; Case No. 1) was 109, the “Change in heart rate b)-a)” value (angina pectoris patients; Case No. 2) was 27 and the Exercise time (angina pectoris patients; Case No. 2) was 146 s. The a) Heart rate before exercise (angina pectoris patients; Case No. 2) was 69 beats/min, the “b) Heart rate after exercise” value (angina pectoris patients; Case No. 2) was 96 and the “Change in heart rate b)-a)” value (angina pectoris patients; Case No. 3) was 27. For the same compound, the Exercise time (angina pectoris patients; Case No. 3) was 102 s, the a) Heart rate before exercise (angina pectoris patients; Case No. 3) was 75 beats/min and the “b) Heart rate after exercise” value (angina pectoris patients; Case No. 3) was 102. For the same compound, the “Change in heart rate b)-a)” value (angina pectoris patients; Mean of 3 cases) was 29.7, the Exercise time (angina pectoris patients; Mean of 3 cases) was 127.3 s and the a) Heart rate before exercise (angina pectoris patients; Mean of 3 cases) was 72.7 beats/min. For the same compound, the “b) Heart rate after exercise” value (angina pectoris patients; Mean of 3 cases) was 102.3, the “Suppression of the heart rate vs placebo, in words” value (angina pectoris patients; as compared with the placebo) was “marked suppression of the heart rate” and the “Metabolized when orally administered” value [1] was 90%. For the same compound, the “Dose at which effects appeared from the standpoints of behavior analysis (PO)” value (“Dose at which effects appeared” for short) (rat [2]) was 25 mg and the “Dose at which effects appeared” value (mouse [3]) was 100 mg.

For `Cc1cccc(OCC(O)CNC(C)(C)C)c1C` (stereo not shown) [compound A, 1-(2',3'-dimethylphenoxy)-3-tert. butylamino-2-propanol], the “Relative effectiveness iv (beta-adrenergic blocking activity, PROPRANOLOL = 1.0)” value [4] was 2, the “Heart rate % drop at the dosage required for manifestation of beta-adrenergic blocking activity [ED50]” value (“Heart rate % drop at the dosage required” for short) (heart rate [5]; PO) was 4% and the “Heart rate drop at the dosage required for manifestation of beta-adrenergic blocking activity [ED50]” value (from here on “Heart rate drop at the dosage required”) (heart rate [5]; PO) was 15 No/min. The “Heart rate % drop at the dosage required” value (heart rate [5]; iv) was 15%, the “Heart rate drop at the dosage required” value (heart rate [5]; iv) was 55 No/min and the “Heart rate % drop at the dosage required” value (heart rate [6]; PO) was 2%. For the same compound, the “Heart rate drop at the dosage required” value (heart rate [6]; PO) was 3 No/min, the “Heart rate % drop at the dosage required” value (heart rate [6]; iv) was 16% and the “Heart rate drop at the dosage required” value (heart rate [6]; iv) was 23 No/min. For the same compound, the “Change in heart rate b)-a)” value (angina pectoris patients; Case No. 1) was 17, the Exercise time (angina pectoris patients; Case No. 1) was 187 s and the a) Heart rate before exercise (angina pectoris patients; Case No. 1) was 81 beats/min. The “b) Heart rate after exercise” value (angina pectoris patients; Case No. 1) was 98, the “Change in heart rate b)-a)” value (angina pectoris patients; Case No. 2) was 20 and the Exercise time (angina pectoris patients; Case No. 2) was 203 s. The a) Heart rate before exercise (angina pectoris patients; Case No. 2) was 76 beats/min, the “b) Heart rate after exercise” value (angina pectoris patients; Case No. 2) was 96 and the “Change in heart rate b)-a)” value (angina pectoris patients; Case No. 3) was 19. For the same compound, the Exercise time (angina pectoris patients; Case No. 3) was 144 s, the a) Heart rate before exercise (angina pectoris patients; Case No. 3) was 84 beats/min and the “b) Heart rate after exercise” value (angina pectoris patients; Case No. 3) was 103. The “Change in heart rate b)-a)” value (angina pectoris patients; Mean of 3 cases) was 18.7, the Exercise time (angina pectoris patients; Mean of 3 cases) was 178.0 s and the a) Heart rate before exercise (angina pectoris patients; Mean of 3 cases) was 80.3 beats/min. For the same compound, the “b) Heart rate after exercise” value (angina pectoris patients; Mean of 3 cases) was 99.0, the “Exercise time up to attack with anginal pains vs placebo, in words” value (angina pectoris patients; as compared with the placebo) was “increases the exercise time up to the time the attack with anginal pains takes place” and the “Increase in the heart rate due to the exercise vs placebo, in words” value (angina pectoris patients; as compared with the placebo) was “suppresses the increase in the heart rate due to the exercise”. The “Suppression of the heart rate vs placebo, in words” value (angina pectoris patients; as compared with the placebo) was “practically no suppression of the heart rate”, the “Effectiveness compared with PROPRANOLOL, in words” value (angina pectoris patients; human, in vivo) was “far greater than that of PROPRANOLOL” and the “Effect on heart rate, in words” value (heart rate [7]; injection) was “high decrease in heart rate; also recorded: a drop in heart rate likewise takes place”. For the same compound, the “Effect on heart rate, in words” value (heart rate [7]; oral / intestinal absorption route) was “the normal heart rate is hardly affected at all; also recorded: practically no change in heart rate; also recorded: without hardly any effect on the heart rate”, the “Dose at which effects appeared” value (mouse [8]) was 200 mg and the “Dose at which effects appeared” value (rat [9]) was 50 mg. The LD50 (rat [10]) was 580 mg, the LD50 (dog [11]) was 300 mg and the “Degree of safety compared with the other similar compounds” value [12] was 7-20 times. For the same compound, the “Degree of safety, times that of PROPRANOLOL” value (rat [13]) was “about 14 times” and the “Degree of safety, times that of PROPRANOLOL” value (dog [14]) was “more than 16 times”.

For `Cc1c(O)ccc(OCC(O)CNC(C)(C)C)c1C` (stereo not shown) [compound B], the “Relative beta-adrenergic blocking effectiveness as compared to PROPRANOLOL” value (beta-adrenergic; i.v.) was 5.5, the “Beta-adrenergic blocking activity compared with PROPRANOLOL, in words” value (beta-adrenergic) was “higher beta-adrenergic blocking activity than PROPRANOLOL” and the “Relative beta-adrenergic blocking effectiveness as compared to PROPRANOLOL” value (beta-adrenergic; p.o.) was 2.5. For the same compound, the “Action of suppressing the heart rate compared with PROPRANOLOL, in words” value (heart rate [15]; in vivo) was “lower action of suppressing the heart rate and lesser side reactions”, the “Change in heart rate at the dosage required for manifestation of the beta-adrenergic blocking activity” value (heart rate [15]; in vivo) was “+10 No./min” and the “Change in heart rate, % increase, at the dosage required for manifestation of the beta-adrenergic blocking activity” value (heart rate [15]; increase) was 3%. The “Change in heart rate by injection, in words” value (heart rate [15]) was “small”.

In the case of `Cc1c(CO)cccc1OCC(O)CNC(C)(C)C` (stereo not shown) [compound C], the “Relative beta-adrenergic blocking effectiveness as compared to PROPRANOLOL” value (beta-adrenergic; i.v.) is reported as 4.5, the “Beta-adrenergic blocking activity compared with PROPRANOLOL, in words” value (beta-adrenergic) is reported as “higher beta-adrenergic blocking activity than PROPRANOLOL” and the “Relative beta-adrenergic blocking effectiveness as compared to PROPRANOLOL” value (beta-adrenergic; p.o.) is reported as 4.0. For the same compound, the “Action of suppressing the heart rate compared with PROPRANOLOL, in words” value (heart rate [15]; in vivo) was “lower action of suppressing the heart rate and lesser side reactions” and the “Change in heart rate by injection, in words” value (heart rate [15]) was “small”.
